What was measured:
Assay in all cases: relative viability (nuclei count vs DMSO), 5 days (fraction); higher = more cells survive
Midostaurin = compound: CO[C@@H]1[C@H](N(C)C(=O)c2ccccc2)C[C@H]2O[C@]1(C)n1c3ccccc3c3c4c(c5c6ccccc6n2c5c31)C(=O)NC4 [Midostaurin]
Outline: (§1)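 Five library-drug doses spaced by √10 were pinned onto vehicle-anchored 1536-well plates of lung cancer cell lines that had been kept overnight at 37 °C. Cells went 5 days without medium change, then were fixed, permeabilised and Hoechst-stained together, imaged at 4× and counted by MetaXpress. Viability is the ratio of treated-well to vehicle-well nuclei, taken as a median over plates. Plates required control CV below 25% and at least one doubling.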

[1] = compound: COc1cc(-c2nn([C@H]3CC[C@H](N4CCN(C(C)=O)CC4)CC3)c3ncnc(N)c23)ccc1NC(=O)c1cc2ccccc2n1C
Outline: as §1

[2] = compound: COc1cc(-c2nn([C@H]3CC[C@H](N4CCN(C(C)=O)CC4)CC3)c3ncnc(N)c23)ccc1NC(=O)c1cc2ccccc2n1C + Cc1nc(Nc2ncc(C(=O)Nc3c(C)cccc3Cl)s2)cc(N2CCN(CCO)CC2)n1 [Dasatinib] (partner 0.075 µM)
Outline: (§2)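 After 5 days of treatment, lung cancer cells in 1536-well plates were fixed and stained in a single step (final 0.05% Triton X-100, 1% formaldehyde, 1 ug/ml Hoechst) and their nuclei counted on 4× images. Treatment had been applied by pin tool the day after seeding as one drug alone or as a fixed anchor-drug dose with five library-drug doses (not always all listed) in √10 steps. Relative viability is the nuclei count of treated wells divided by that of vehicle wells, and values are medians of duplicate plates.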

[3] = compound: COc1cc(-c2nn([C@H]3CC[C@H](N4CCN(C(C)=O)CC4)CC3)c3ncnc(N)c23)ccc1NC(=O)c1cc2ccccc2n1C + Nc1nc2[nH]cc(CCc3ccc(C(=O)N[C@@H](CCC(=O)O)C(=O)O)cc3)c2c(=O)[nH]1 [Pemetrexed] (partner 0.2 µM)
Outline: as §2

Midostaurin + Alpelisib = compound: CO[C@@H]1[C@H](N(C)C(=O)c2ccccc2)C[C@H]2O[C@]1(C)n1c3ccccc3c3c4c(c5c6ccccc6n2c5c31)C(=O)NC4 [Midostaurin] + Cc1nc(NC(=O)N2CCC[C@H]2C(N)=O)sc1-c1ccnc(C(C)(C)C(F)(F)F)c1 [Alpelisib] (partner 2 µM)
Outline: as §2

Cell Line | relative viability (Midostaurin; 0.01 µM) | relative viability (Midostaurin; 0.03162 µM) | relative viability (Midostaurin; 0.1 µM) | relative viability (Midostaurin; 0.3162 µM) | relative viability ([1]; 0.0128 µM) | relative viability ([1]; 0.04048 µM) | relative viability ([1]; 0.128 µM) | relative viability ([1]; 1.28 µM) | relative viability ([2]; first compound 0.0128 µM) | relative viability ([2]; first compound 0.04048 µM) | relative viability ([2]; first compound 0.128 µM) | relative viability ([2]; first compound 1.28 µM) | relative viability ([3]; first compound 0.0128 µM) | relative viability ([3]; first compound 0.04048 µM) | relative viability ([3]; first compound 0.128 µM) | relative viability ([3]; first compound 1.28 µM) | relative viability (Midostaurin + Alpelisib; first compound 0.01 µM) | relative viability (Midostaurin + Alpelisib; first compound 0.03162 µM) | relative viability (Midostaurin + Alpelisib; first compound 0.1 µM) | relative viability (Midostaurin + Alpelisib; first compound 0.3162 µM)
201T | 0.984 | 0.918 | 1 | 1.03 | 1.02 | 1.03 | 0.927 | 0.716 | 0.617 | 0.511 | 0.537 | 0.448 | 0.394 | 0.288 | 0.316 | 0.309 | 1.04 | 1.01 | 1.02 | 1.08
A549 | 0.994 | 0.857 | 0.953 | 0.744 | 0.995 | 0.952 | 0.979 | 0.957 | – | – | – | – | – | – | – | – | 0.742 | 0.705 | 0.679 | 0.265
A-427 | 0.927 | 0.879 | 1.03 | 0.985 | 1.05 | 0.837 | 0.973 | 0.863 | 0.744 | – | 0.65 | 0.856 | 0.972 | 1.07 | 0.906 | 0.93 | 1.05 | 0.996 | 1.07 | 0.982
ABC-1 | 0.867 | 0.962 | 0.948 | 0.96 | 0.879 | 0.885 | 0.756 | 0.805 | 0.613 | 0.505 | 0.542 | 0.688 | – | – | – | – | 1.05 | 0.879 | 0.816 | 0.897
BEN | 0.98 | 0.964 | 1.03 | 1.19 | 0.816 | 0.985 | 0.884 | 0.702 | 0.251 | 0.32 | 0.351 | 0.318 | 0.686 | 0.814 | 0.871 | 0.664 | 1.03 | 1.02 | 0.968 | 1.06
CAL-12T | 1.05 | 0.882 | 0.921 | 0.839 | 1.03 | 1.03 | 1.06 | 0.991 | 0.418 | 0.252 | 0.487 | 0.436 | 1.39 | 1.21 | 1.15 | 1.12 | 1.28 | 0.765 | 0.816 | 1.09
Calu-6 | 0.946 | 0.984 | 0.985 | 1.01 | 1.04 | 1.04 | 0.899 | 0.764 | – | – | – | – | – | – | – | – | 0.944 | 0.913 | 0.914 | 0.766
ChaGo-K-1 | 0.919 | 1.07 | 0.932 | 1.02 | 1.03 | 0.98 | 0.891 | 0.898 | 0.693 | 0.62 | 0.568 | 0.621 | 0.258 | 0.26 | 0.252 | 0.237 | – | – | – | –
EBC-1 | 1.01 | 0.9 | 0.959 | 0.684 | 1.06 | 1.07 | 1.01 | 1.02 | – | – | – | – | – | – | – | – | 0.871 | 0.735 | 0.746 | 0.605
HCC-44 | 1 | 0.965 | 0.996 | 0.985 | 1.06 | 1.13 | 0.954 | 1.17 | – | – | – | – | 0.719 | 0.742 | 0.607 | 0.687 | 0.831 | 0.837 | 0.761 | 0.607
IA-LM | 0.93 | 0.677 | 0.918 | 0.941 | 1.04 | 0.999 | 1.05 | 0.991 | – | – | – | – | – | – | – | – | 0.853 | – | 0.821 | 0.891
NCI-H522 | 1.07 | 1.06 | 0.947 | 1.04 | 0.936 | 0.875 | 0.954 | 0.885 | 0.794 | 0.843 | 0.809 | 0.897 | 1 | 0.939 | 1.14 | 0.822 | – | – | – | –
NCI-H727 | 1.03 | 0.82 | 1.05 | 0.767 | 0.974 | – | 0.826 | 0.906 | 0.322 | – | 0.296 | 0.381 | – | – | – | – | 0.526 | 0.471 | 0.538 | 0.296
NCI-H1299 | 1.01 | 0.974 | 0.975 | 0.965 | 1.06 | 1.11 | 1 | 1 | – | – | – | – | – | – | – | – | 1.03 | 1.05 | 1.04 | 1.03
NCI-H1648 | 0.937 | 0.803 | 0.724 | 0.927 | 0.964 | 0.766 | 0.858 | 0.721 | – | – | – | – | 0.92 | 0.738 | 0.857 | 0.646 | – | – | – | –
NCI-H1650 | 0.915 | 0.957 | 0.921 | 0.937 | 0.922 | 1.1 | 0.941 | 0.812 | 0.265 | 0.304 | 0.32 | 0.29 | 0.332 | 0.384 | 0.348 | 0.468 | – | – | – | –
NCI-H1703 | 0.958 | 0.869 | 0.64 | 0.266 | 0.968 | 0.581 | 0.803 | 0.324 | – | – | – | – | – | – | – | – | 0.343 | 0.369 | 0.27 | 0.209
NCI-H2342 | 0.913 | 0.903 | 1.04 | 0.989 | 0.807 | 1.03 | 1 | 0.932 | 0.312 | 0.309 | 0.335 | 0.323 | 0.762 | 0.821 | 0.781 | 0.771 | – | – | – | –
SW 900 | 0.821 | 0.777 | 0.964 | 0.745 | 1.03 | 0.986 | 0.788 | 1 | 0.616 | 0.707 | 0.487 | 0.578 | 0.487 | 0.489 | 0.469 | 0.373 | – | – | – | –

Source: the supplement of paper PMC10307832
